Reference: PubChem BioAssay AID1845208 (Molecular Pharmacology Branch, DTP, NCI, 2023)

System: NCI-H196 SCLC complex tumor spheroid viability
Test: Anticancer human tumor NCI-H196 cell line growth inhibition;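 also: spheroids exposed to compounds for 7 days before readout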;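 as to viability, T/C: 100% = DMSO vehicle control wells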
Conditions: for IC50: curve of first compound; for viability, T/C: stronger effect = lower value
In short: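 Complex spheroids of malignant cells with endothelial cells and mesenchymal stem cells; agents alone or combined, from near clinical Cmax (or 10 microM if unknown) down in half-log steps, 0.25% DMSO final.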

SMILES: CC(C)n1c(=O)n(C)c2cnc3cc(F)c(-c4ccc(OCCCN5CCCCC5)nc4)cc3c21 + Cn1nnc2c(C(N)=O)ncn2c1=O
- IC50 (second compound 1 µM): > 10 µM
- IC50 (second compound 3.16 µM): > 10 µM
- IC50 (second compound 10 µM): > 10 µM
- IC50 (second compound 31.6 µM): > 10 µM
- IC50 (second compound 100 µM): > 10 µM
- viability, T/C (second compound 1 µM, first compound 0.0316 µM): 93.1%
- viability, T/C (second compound 1 µM, first compound 0.1 µM): 102%
- viability, T/C (second compound 1 µM, first compound 0.316 µM): 91.8%
- viability, T/C (second compound 1 µM, first compound 1 µM): 99.7%
- viability, T/C (second compound 1 µM, first compound 3.16 µM): 101%
- viability, T/C (second compound 1 µM, first compound 10 µM): 93.6%
- viability, T/C (second compound 3.16 µM, first compound 0.0316 µM): 94.3%
- viability, T/C (second compound 3.16 µM, first compound 0.1 µM): 102%
- viability, T/C (second compound 3.16 µM, first compound 0.316 µM): 101%
- viability, T/C (second compound 3.16 µM, first compound 1 µM): 119%
- viability, T/C (second compound 3.16 µM, first compound 3.16 µM): 100%
- viability, T/C (second compound 3.16 µM, first compound 10 µM): 94.2%
- viability, T/C (second compound 10 µM, first compound 0.0316 µM): 90.8%
- viability, T/C (second compound 10 µM, first compound 0.1 µM): 97.7%
- viability, T/C (second compound 10 µM, first compound 0.316 µM): 98.4%
- viability, T/C (second compound 10 µM, first compound 1 µM): 106%
- viability, T/C (second compound 10 µM, first compound 3.16 µM): 106%
- viability, T/C (second compound 10 µM, first compound 10 µM): 95%
- viability, T/C (second compound 31.6 µM, first compound 0.0316 µM): 103%
- viability, T/C (second compound 31.6 µM, first compound 0.1 µM): 103%
- viability, T/C (second compound 31.6 µM, first compound 0.316 µM): 101%
- viability, T/C (second compound 31.6 µM, first compound 1 µM): 104%
- viability, T/C (second compound 31.6 µM, first compound 3.16 µM): 116%
- viability, T/C (second compound 31.6 µM, first compound 10 µM): 90.8%
- viability, T/C (second compound 100 µM, first compound 0.0316 µM): 103%
- viability, T/C (second compound 100 µM, first compound 0.1 µM): 96.2%
- viability, T/C (second compound 100 µM, first compound 0.316 µM): 98.3%
- viability, T/C (second compound 100 µM, first compound 1 µM): 100%
- viability, T/C (second compound 100 µM, first compound 3.16 µM): 95.8%
- viability, T/C (second compound 100 µM, first compound 10 µM): 82.1%
